Series [1] has as its system learned helpless C57BL/6J mice. Put plainly: Learned helplessness: tail suspension. As to conditions: for immobility upon treatment-withdrawal / anti-depressant-like activities in tail suspension: 40 mg/kg Ibo; for immobility upon treatment-withdrawal: 10 mg/kg Flx; for anti-depressant-like activities in tail suspension: 10 mg/kg Flx daily. The class given is in vivo, mouse.

Series [2] relates to learned helpless C57BL/6J mice. Put plainly: Sensitivity to foot-shock. The settings on record: days 13 and 22. The class given is in vivo, mouse.
Series [3] has as its system learned helpless C57BL/6J mice. Put plainly: Open field motor activity. The class given is in vivo, mouse. As to conditions: day 12; 2 or 5 mg/kg ‘8090, 5 mg/kg ‘8219; 40 mg/kg Ibo, 10 mg/kg Flx.
Series [4] has as its system learned helpless C57BL/6J mice. Put plainly: Elevated 8-arm radial maze. The class given is in vivo, mouse.
Series [5] concerns learned helpless C57BL/6J mice. The series is described as follows: Learned helplessness: shock escape. The class given is in vivo, mouse. As to conditions: for shock-escape performance: 40 mg/kg Ibo, 10 mg/kg Flx.
Series [6] concerns learned helpless C57BL/6J mice. Put plainly: Elevated zero maze. The settings on record: for locomotion in the zero maze versus vehicle: 5 mg/kg ‘8090, 40 mg/kg Ibo. The class given is in vivo, mouse.
Series [7] relates to learned helpless C57BL/6J mice. The series is described as follows: Learned helplessness: sucrose preference. The class given is in vivo, mouse. The settings on record: for overall sucrose preference at testing: 40 mg/kg Ibo.
In series [8] the test system is wild-type (WT) and VMAT2 heterozygous (HET) mice. Put plainly: Tail suspension in VMAT2 mice. The class given is in vivo, mouse. As to conditions: for anti-depressant-like effects 24 h post-injection: VMAT2 HET, 2 mg/kg ‘8090, 0.5 mg/kg ‘8219, 20 mg/kg Flx, 30 mg/kg Ibo; for immobility times: acute (30 min), 20 mg/kg Flx versus vehicle, 30 mg/kg Ibo versus 1 mg/kg ‘8090 and 0.5 mg/kg ‘8219.

Series [9] has as its target T1, SERT-Y107C (Rattus norvegicus, UniProt P31652, C109A/Y107C). The settings on record: cited from earlier work.
Series [10] has as its target SERT-S277C (Rattus norvegicus, UniProt P31652, C109A/C15A/C21A/C357I/C622A/S277C). The series is described as follows: Cys277 accessibility. The class given is biochemical.
In series [11] the test system is C56BL/6J mice. The series is described as follows: Elevated plus-maze assay. The class given is in vivo, mouse. The settings on record: ‘8219 and ‘8090 10 mg/kg/day for 10 days; paroxetine 10 mg/kg single.
Series [12] concerns morphine-treated mice. Put plainly: Naloxone-precipitated opioid withdrawal assay. The class given is in vivo, mouse. As to conditions: 10 mg/kg i.p.
Series [13] has as its target human NET (Homo sapiens, UniProt P23975). The series is described as follows: Neurotransmitter transporter uptake assay, NET. As to conditions: read-out: Ki against NET; cell-based functional assay.
Series [14] has as its target T2, SERT (Rattus norvegicus, UniProt P31652). Put plainly: Efflux of accumulated [3H]5-HT induced by extracellular compounds. The class given is cell-based. As to conditions: saturating concentrations.
Series [15] concerns the target hSERT (Homo sapiens, UniProt P31645). The class given is cell-based.
In series [16] the target is human DAT (Homo sapiens, UniProt Q01959). The series is described as follows: Neurotransmitter transporter uptake assay, DAT. As to conditions: read-out: Ki against DAT; cell-based functional assay.
Chain of human DAT (Q01959 whole entry): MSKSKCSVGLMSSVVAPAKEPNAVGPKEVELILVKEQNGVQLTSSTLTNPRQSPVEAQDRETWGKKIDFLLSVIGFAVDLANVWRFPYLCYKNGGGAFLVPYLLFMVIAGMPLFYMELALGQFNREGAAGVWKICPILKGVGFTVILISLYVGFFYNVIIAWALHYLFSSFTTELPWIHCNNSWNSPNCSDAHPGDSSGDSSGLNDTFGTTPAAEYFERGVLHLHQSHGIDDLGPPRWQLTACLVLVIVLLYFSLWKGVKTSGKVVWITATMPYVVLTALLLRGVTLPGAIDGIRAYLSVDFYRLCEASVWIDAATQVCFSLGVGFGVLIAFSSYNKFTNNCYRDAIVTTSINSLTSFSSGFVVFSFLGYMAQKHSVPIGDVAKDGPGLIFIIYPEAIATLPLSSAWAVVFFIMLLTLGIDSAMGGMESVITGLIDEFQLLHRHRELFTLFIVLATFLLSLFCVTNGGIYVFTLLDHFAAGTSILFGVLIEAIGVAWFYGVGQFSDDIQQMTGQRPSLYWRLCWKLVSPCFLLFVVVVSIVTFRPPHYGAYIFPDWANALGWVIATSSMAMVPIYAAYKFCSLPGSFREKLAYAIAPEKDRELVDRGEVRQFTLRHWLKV
For series [17], the target named is rSERT (Rattus norvegicus, UniProt P31652). The series is described as follows: [3H]5-HT transport into RBL cells or SERT-transfected HeLa cells. The class given is cell-based.
Series [18] addresses T1, SERT-Y107C. The series is described as follows: Cys107 accessibility. The class given is cell-based. The settings on record: saturating concentration (10x KD).
Series [19] in a line: Pharmacokinetics, brain exposure after i.p. dosing. The class given is in vivo. The settings on record: 10 mg/Kg intraperitoneal (i.p.), mouse.
Series [20] has as its target T2, SERT. The series is described as follows: [125I]β-CIT displacement binding in membranes from SERT-transfected HeLa cells.
Series [21] deals with T3, 5-HT1A receptor (Homo sapiens, UniProt P08908).
T3 sequence (P08908 1-422): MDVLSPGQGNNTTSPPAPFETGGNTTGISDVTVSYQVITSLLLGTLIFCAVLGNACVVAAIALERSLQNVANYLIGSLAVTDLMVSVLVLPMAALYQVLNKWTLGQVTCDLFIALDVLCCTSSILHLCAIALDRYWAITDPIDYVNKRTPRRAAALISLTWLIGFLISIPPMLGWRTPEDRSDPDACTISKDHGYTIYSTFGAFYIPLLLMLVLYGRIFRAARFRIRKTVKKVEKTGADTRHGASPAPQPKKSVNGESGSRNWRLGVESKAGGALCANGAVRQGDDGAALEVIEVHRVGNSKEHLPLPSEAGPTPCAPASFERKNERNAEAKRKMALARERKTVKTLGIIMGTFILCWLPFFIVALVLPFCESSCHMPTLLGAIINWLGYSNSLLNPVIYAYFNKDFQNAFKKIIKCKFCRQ
The series is described as follows: GloSensor cAMP Gi agonist activity assay. The class given is cell-based. As to conditions: concentration-response.

Series [22] concerns the target T2, SERT. As to conditions: cited from earlier work.
[23] abbreviates: presence of Na+, cocaine 10 µM, ibogaine 10 µM, ‘8219 0.05 µM, ‘8090 0.15 µM.

pKd, pKi: −log10 of the molar value.

Chain of hSERT (P31645 whole entry): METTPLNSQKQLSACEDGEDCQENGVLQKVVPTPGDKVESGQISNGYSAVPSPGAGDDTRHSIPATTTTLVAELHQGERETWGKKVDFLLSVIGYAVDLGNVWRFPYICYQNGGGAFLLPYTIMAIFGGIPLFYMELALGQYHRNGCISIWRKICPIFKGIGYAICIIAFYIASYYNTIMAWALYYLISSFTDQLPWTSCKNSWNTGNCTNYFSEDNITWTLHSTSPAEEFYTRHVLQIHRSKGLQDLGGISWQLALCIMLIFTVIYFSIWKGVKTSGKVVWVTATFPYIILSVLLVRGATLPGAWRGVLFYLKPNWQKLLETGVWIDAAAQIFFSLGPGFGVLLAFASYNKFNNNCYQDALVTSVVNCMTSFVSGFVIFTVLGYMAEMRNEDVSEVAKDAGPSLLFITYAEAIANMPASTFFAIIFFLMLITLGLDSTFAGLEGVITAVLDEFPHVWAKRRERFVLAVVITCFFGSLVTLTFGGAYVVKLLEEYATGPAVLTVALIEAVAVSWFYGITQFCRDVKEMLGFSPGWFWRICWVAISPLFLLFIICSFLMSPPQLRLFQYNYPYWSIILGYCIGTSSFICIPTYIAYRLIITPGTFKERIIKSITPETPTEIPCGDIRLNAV
Chain of human NET (P23975 whole entry): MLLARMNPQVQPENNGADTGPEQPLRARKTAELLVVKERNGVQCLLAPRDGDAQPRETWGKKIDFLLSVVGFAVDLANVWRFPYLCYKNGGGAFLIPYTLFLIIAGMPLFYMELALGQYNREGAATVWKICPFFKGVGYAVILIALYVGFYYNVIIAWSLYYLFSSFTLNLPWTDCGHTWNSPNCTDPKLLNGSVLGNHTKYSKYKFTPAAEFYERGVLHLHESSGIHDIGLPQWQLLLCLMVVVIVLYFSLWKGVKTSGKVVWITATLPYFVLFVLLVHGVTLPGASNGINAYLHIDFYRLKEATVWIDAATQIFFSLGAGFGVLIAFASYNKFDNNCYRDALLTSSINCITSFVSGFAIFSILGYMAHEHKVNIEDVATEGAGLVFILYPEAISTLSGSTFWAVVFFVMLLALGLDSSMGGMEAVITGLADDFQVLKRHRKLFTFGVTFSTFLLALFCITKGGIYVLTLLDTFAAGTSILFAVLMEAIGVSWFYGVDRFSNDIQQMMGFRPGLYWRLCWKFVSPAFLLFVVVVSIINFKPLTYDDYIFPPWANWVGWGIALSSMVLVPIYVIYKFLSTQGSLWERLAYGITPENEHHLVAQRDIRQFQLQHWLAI

For the compound `CNCCC(Oc1ccc(C(F)(F)F)cc1)c1ccccc1` (stereo not shown) [Flx, fluoxetine], in [1], the immobility upon treatment-withdrawal result is “immobility was enhanced” and the “anti-depressant-like activities in tail suspension” value is “transient”. Also, the reactivity to foot-shock result in [2] is recorded as “do not affect reactivity to foot-shock”. The “locomotion in the open field” value in series [3] is reported as “No locomotor differences were found”. Besides, the “arm entries before repeating a first entry compared to Ibo and vehicle mice” value in series [4] (10 mg/kg Flx, ANCOVA) is given as “entered more arms before repeating a first entry”. For the same compound, in series [5], the shock-escape performance entry is “improve shock-escape performance”. Moreover, in [6] (10 mg/kg Flx), the “open area time compared to Ibo and vehicle controls” value was “increased open area time”. For the same compound, in [7] (10 mg/kg Flx daily), the “sucrose preference over vehicle controls on day −2” value is reported as “enhanced preference for sucrose” and the “overall sucrose preference at testing” value is given as “increased overall sucrose preference”. In addition, in series [8], the “anti-depressant-like effects 24 h post-injection” value was “maintained”. For the same compound, in series [8] (WT), the immobility times entry is listed as “increased”.

Consider `COC(=O)[C@H]1[C@@H](OC(=O)c2ccccc2)C[C@@H]2CC[C@H]1N2C` [cocaine, reference compound], for which, in series [9], the “Cys107 accessibility (extracellular pathway)” value is “renders it more accessible”. Also, the “Cys277 reactivity (cytoplasmic pathway) versus control” value in series [10] (setting [23]) is “decreased Cys277 reactivity”.

`Fc1ccc([C@@H]2CCNC[C@H]2COc2ccc3c(c2)OCO3)cc1` [paroxetine, reference compound]: the “open arm entries and time compared to vehicle” value in series [11] is given as “spent more time exploring the open arms”. In series [12], the “naloxone-precipitated morphine withdrawal symptoms” value was “significantly reduced naloxone-precipitated jumps and rearings”.

The term pKi denotes −log10 of the Ki, conventionally taken in molar units. A word on the half-life: it is how long it takes for the measured level to halve. Low readings indicate fast loss, high ones slow loss. What is called pKd is the Kd on a negative log10 scale, so that one unit is a factor of ten. For the compound `Fc1ccc(-c2csc(N3CCNCC3)n2)cc1` [‘8090], in series [1] (2 or 5 mg/kg ‘8090, 5 mg/kg ‘8219 daily), the “immobility times on days 0, 1, and 3” value is on record as “reduced”. Further, the “open arm entries and time compared to vehicle” value in [11] is “increased the percentage of entries into and the time spent exploring the open arms”. In addition, the pKi in series [13] was 5.00; in series [16], 5.18; in series [20] (displacement of [125I]β-CIT), 7.85. The reactivity to foot-shock result in series [2] is recorded as “do not affect reactivity to foot-shock”. In addition, in [3], the “locomotion in the open field” value was “no effects were observed”. Also, in series [14], the “SERT substrate activity (stimulation of [3H]5-HT efflux)” value is “not SERT substrates”. Further, in series [4] (2 mg/kg ‘8090 or 5 mg/kg ‘8219, day 9), the “arm entries before a second repeated entry versus vehicle” value is given as “entered more arms before making a second repeated entry”. Also, in series [15] (HEK-293 cells expressing hSERT pre-incubated with 50 nM ‘8219 or 75 nM ‘8090, washout), the dissociation rate was 1.82 ± 0.09 × 10^−3 s^−1. Also, the “half time for equilibration of binding” value in [15] (at concentrations giving half-maximal inhibition, calculated) is listed as “less than 7 minutes”. Further, the “shock-escape performance on day 23 versus controls” value in series [5] (1 mg/kg ‘8090 group) was “higher”. For the same compound, the “shock-escape performance (numbers of escapes) on days 10 and 23” value in series [5] (5 mg/kg) is reported as “increased over vehicle”. For the same compound, the “Vmax for 5-HT transport in presence of inhibitor” value in [17] (0.15 μM ‘8219, 0.7 μM ‘8090, HeLa cells transfected with rSERT, control 1.7 ± 0.25) is on record as 0.69 ± 0.1 pmol/m/well. In series [17] (decreased Vmax with minimal effect on KM), the “type of inhibition of 5-HT influx” value is “non-competitive inhibition”. For the same compound, the “Cys107 reactivity (extracellular pathway)” value in [18] is given as “decreased Cys107 reactivity”. Further, the “brain Cmax” value in [19] was determined as 12000 ng/g. This compound also showed a half-life in series [19] (brain) of 44.3 min. The “increase of inhibitory potency (binding) by Na+” value in [20] (displacement of [125I]β-CIT) is on record as 15 fold. Moreover, the pKd in series [20] (read-out: KD values used for kon calculation) was 7.82. Besides, the “locomotion in the zero maze versus vehicle” value in series [6] was “increased”. In addition, the “time in and entry into the open areas versus vehicle” value in series [6] (2 or 5 mg/kg ‘8090, 5 mg/kg ‘8219, day 6) is “spent more time and entered the open areas more readily than vehicle-treated mice”. The “Cys277 reactivity (cytoplasmic pathway) versus control” value in series [10] (absence of Na+ (replaced by NMDG), 2 µM) is given as “had no influence on the pathway”; in series [10] (setting [23]), “decreased reactivity slightly”. Moreover, in series [7] (daily i.p. dosing, 2 or 5 mg/kg ‘8090, 5 mg/kg ‘8219), the “sucrose preference compared to vehicle” value was “significant preference for sucrose compared to vehicle”. For the same compound, the “Gi agonist activity at 5-HT1A relative to reference agonist 5-HT” value in series [21] is reported as “about 6%”. In series [8], the “anti-depressant-like effects 24 h post-injection” value is “maintained”. For the same compound, in [8] (WT, 1 mg/kg compared to 0.5 mg/kg), the “immobility 24 h post-injection” value is “significantly decreased immobility”.

As to ibogaine, in [1], the immobility upon treatment-withdrawal entry is given as “immobility was enhanced” and the “anti-depressant-like activities in tail suspension” value is on record as “transient”. Moreover, the “Cys107 accessibility (extracellular pathway)” value in [9] was “decreases its accessibility”. The “locomotion in the radial maze” value in series [4] (40 mg/kg Ibo) was “suppressed locomotion”. Further, in series [22], the “effect of Cl− on binding to SERT” value was “independent of Cl^−” and the “effect of Na+ on binding to SERT” value was “inhibited by Na^+”. Moreover, in [5], the shock-escape performance entry is given as “improve shock-escape performance”. In addition, the “locomotion in the zero maze versus vehicle” value in series [6] is recorded as “decreased”. The “Cys277 reactivity (cytoplasmic pathway) versus control” value in [10] (setting [23]) is “dramatically increased Cys277 reactivity”. Further, in [7] (10 mg/kg Flx daily), the “overall sucrose preference at testing” value is on record as “increased overall sucrose preference”. The “anti-depressant-like effects 24 h post-injection” value in [8] is given as “effects were lost”. For the same compound, the immobility times entry in series [8] (WT) is “increased”.

Source of the values: paper PMC10306110 (Cell, 2023).
